A value given as a limit tells only on which side of the number the result lay.

T1 sequence (Q9Y5Y9 whole entry): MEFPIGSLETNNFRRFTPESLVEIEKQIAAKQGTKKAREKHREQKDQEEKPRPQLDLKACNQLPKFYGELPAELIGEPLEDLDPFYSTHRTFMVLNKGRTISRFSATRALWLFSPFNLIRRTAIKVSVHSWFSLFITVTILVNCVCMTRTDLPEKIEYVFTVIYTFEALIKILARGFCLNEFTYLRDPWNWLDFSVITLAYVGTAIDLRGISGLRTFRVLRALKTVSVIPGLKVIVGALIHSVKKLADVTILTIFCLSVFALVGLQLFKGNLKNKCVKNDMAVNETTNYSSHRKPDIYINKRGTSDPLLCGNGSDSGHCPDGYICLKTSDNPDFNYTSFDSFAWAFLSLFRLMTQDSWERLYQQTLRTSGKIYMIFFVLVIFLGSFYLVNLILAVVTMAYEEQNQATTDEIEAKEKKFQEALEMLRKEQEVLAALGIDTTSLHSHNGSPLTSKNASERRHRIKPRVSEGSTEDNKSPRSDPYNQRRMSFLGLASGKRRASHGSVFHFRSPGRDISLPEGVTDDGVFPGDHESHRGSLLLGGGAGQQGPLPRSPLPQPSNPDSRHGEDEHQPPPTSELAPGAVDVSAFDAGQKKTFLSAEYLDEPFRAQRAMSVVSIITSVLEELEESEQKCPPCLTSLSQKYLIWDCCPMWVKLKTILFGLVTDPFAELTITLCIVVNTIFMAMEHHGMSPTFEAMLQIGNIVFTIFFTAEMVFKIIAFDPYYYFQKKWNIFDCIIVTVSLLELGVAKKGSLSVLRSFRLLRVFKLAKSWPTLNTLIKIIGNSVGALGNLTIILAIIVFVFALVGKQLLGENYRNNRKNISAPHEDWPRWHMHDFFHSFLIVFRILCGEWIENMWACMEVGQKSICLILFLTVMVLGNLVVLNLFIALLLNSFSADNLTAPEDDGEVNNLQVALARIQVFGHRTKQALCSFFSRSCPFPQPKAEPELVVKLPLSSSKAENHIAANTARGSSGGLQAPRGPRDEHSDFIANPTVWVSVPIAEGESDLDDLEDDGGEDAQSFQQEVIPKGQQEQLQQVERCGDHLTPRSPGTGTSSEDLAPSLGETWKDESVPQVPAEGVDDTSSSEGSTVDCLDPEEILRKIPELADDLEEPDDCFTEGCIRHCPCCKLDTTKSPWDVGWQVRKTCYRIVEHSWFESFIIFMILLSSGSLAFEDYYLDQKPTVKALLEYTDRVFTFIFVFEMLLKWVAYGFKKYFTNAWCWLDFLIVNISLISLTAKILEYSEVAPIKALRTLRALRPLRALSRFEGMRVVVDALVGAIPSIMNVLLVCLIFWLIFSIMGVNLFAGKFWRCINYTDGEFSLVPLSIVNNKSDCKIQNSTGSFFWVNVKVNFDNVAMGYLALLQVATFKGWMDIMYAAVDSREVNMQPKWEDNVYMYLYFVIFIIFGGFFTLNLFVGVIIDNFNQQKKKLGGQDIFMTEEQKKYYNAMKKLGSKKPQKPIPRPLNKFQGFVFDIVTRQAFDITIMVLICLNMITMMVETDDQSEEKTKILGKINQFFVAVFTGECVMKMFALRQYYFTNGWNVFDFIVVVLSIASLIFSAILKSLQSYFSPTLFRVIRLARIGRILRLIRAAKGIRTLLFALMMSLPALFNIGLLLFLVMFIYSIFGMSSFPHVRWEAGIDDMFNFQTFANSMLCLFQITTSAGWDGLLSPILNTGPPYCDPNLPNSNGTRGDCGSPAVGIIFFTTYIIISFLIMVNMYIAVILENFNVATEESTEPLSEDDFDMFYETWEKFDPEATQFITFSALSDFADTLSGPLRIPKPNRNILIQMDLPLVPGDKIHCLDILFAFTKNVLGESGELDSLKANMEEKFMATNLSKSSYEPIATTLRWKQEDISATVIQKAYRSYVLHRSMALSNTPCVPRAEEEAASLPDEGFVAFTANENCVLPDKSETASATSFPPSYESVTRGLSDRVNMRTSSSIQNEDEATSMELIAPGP
T1 sequence (Q9NY72 23-215 partner): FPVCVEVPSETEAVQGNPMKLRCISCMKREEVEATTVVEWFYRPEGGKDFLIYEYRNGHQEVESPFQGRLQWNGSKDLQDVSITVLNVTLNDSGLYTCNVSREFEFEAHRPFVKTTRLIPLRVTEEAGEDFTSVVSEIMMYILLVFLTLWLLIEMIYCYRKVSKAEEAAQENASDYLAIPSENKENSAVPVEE

The experiment has as its target T1, human NaV1.8 (Homo sapiens, UniProt Q9Y5Y9).
T1 construct: The following NaV1.8 recombinant cell line was used for recordings: HEK-NaV1.8 (NM 006514.1); expressed in transfected cells; host or cells: HEK (recombinant cell line HEK-NaV1.8)
In words: Electrophysiology: automated whole-cell voltage-clamp (patch clamp, Qube384) recordings of sodium currents in HEK-NaV1.8 cells. It counts as cell-based. To be noted: potency data either taken from inactivated or resting state, read-out: Potency category (human NaV1.8 IC50). Summed up: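 Automated whole-cell patch clamp at room temperature on HEK cells expressing human NaV1.8, with 0.3% DMSO vehicle controls. State-dependent protocol from −120 mV tested resting (P1) and half-inactivated (P2, 4 s at V1/2) channels, plus 40-pulse trains at 10 and 20 Hz. Values after ~12 min compound exposure were normalised to baseline and corrected for vehicle run-down; IC50 from a 4-parameter logistic fit, taken from inactivated or resting state.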
For orientation: IC50 means the point on the concentration scale where inhibition reaches its midpoint. Turning to `CS(=O)(=O)c1cc(NC(=O)c2c(C(F)(F)F)cnn2CC2CCC(F)(F)CC2)ccn1` [SC-14, 2-[(4,4-difluorocyclohexyl)methyl]-N-(2-methylsulfonylpyridin-4-yl)-4-(trifluoromethyl)pyrazole-3-carboxamide], the IC50 lay in the range of 1000 to 10000 nM.

Turning to `CS(=O)(=O)c1cc(NC(=O)c2c(C(F)F)c(C3CC3)nn2CC2CCC(F)(F)C2)ccn1` (centres unmarked) [SC-275, 3-cyclopropyl-1-((3,3-difluorocyclopentyl)methyl)-4-(difluoromethyl)-N-(2-(methylsulfonyl)pyridin-4-yl)-1H-pyrazole-5-carboxamide], the IC50 was not above 100 nM.

`NC(=O)c1cc(NC(=O)c2c(C(F)(F)F)c(C3CC3)nn2C[C@@H]2CO[C@H](C(F)(F)F)C2)ccn1` (single isomer, unassigned) [SC-148b]: the IC50 was not above 100 nM.

With `CS(=O)(=O)c1cccc(NC(=O)c2c(C#N)cnn2CC2CCCCC2)c1` [SC-10, 4-cyano-1-(cyclohexylmethyl)-N-(3-(methylsulfonyl)phenyl)-1H-pyrazole-5-carboxamide], the IC50 lay in the range of 100 to 1000 nM.

`Cc1cnn(CC2CCCCC2)c1C(=O)Nc1cccc(S(C)(=O)=O)c1` [SC-37, 2-(cyclohexylmethyl)-4-methyl-N-(3-methylsulfonylphenyl)pyrazole-3-carboxamide]: the half-maximal inhibitory concentration (IC50) was 1000 to 10000 nM.

For the compound `CS(=O)(=O)c1cc(NC(=O)c2c(C(F)(F)F)c(C3CC3)nn2CC2CCC(F)(F)CC2)ccn1` [SC-250, 3-cyclopropyl-1-((4,4-difluorocyclohexyl)methyl)-N-(2-(methylsulfonyl)pyridin-4-yl)-4-(trifluoromethyl)-1H-pyrazole-5-carboxamide], the IC50 was not above 100 nM.

On to `NC(=O)c1cc(NC(=O)c2c(C(F)(F)F)c(C3CC3)nn2CC2CCC(F)(F)C2)ccn1` (single isomer, unassigned) [SC-129b], for which the IC50 is not above 100 nM.

For the compound `Cc1c(C(C)(F)F)nn(CC2C[C@@H](F)[C@@H](F)C2)c1C(=O)Nc1ccnc(S(C)(=O)=O)c1` (some centres unmarked) [SC-224, 1-((3,4-difluorocyclopentyl)methyl)-3-(1,1-difluoroethyl)-4-methyl-N-(2-(methylsulfonyl)pyridin-4-yl)-1H-pyrazole-5-carboxamide], the half-inhibitory concentration (IC50) was in the range of 100 to 1000 nM.

In the case of `Cc1c(C(C)(F)F)nn(CC2CC(F)(F)C2)c1C(=O)Nc1ccnc(S(N)(=O)=O)c1` [SC-215, 1-((3,3-difluorocyclobutyl)methyl)-3-(1,1-difluoroethyl)-4-methyl-N-(2-sulfamoylpyridin-4-yl)-lH-pyrazole-5-carboxamide], the IC50 is not above 100 nM.

For the compound `NC(=O)c1cc(NC(=O)c2c(C(F)(F)F)c(C3CC3)nn2C[C@@H]2CCO[C@@H]2C(F)(F)F)ccn1` (single isomer, unassigned) [SC-147b], the IC50 is not above 100 nM.

Consider `CCc1nn(CC2CCC(F)(F)C2)c(C(=O)Nc2ccnc(C(N)=O)c2)c1C(F)(F)F` (centres unmarked) [SC-218, 4-(1-((3,3-difluorocyclopentyl)methyl)-3-ethyl-4-(trifluoromethyl)-1H-pyrazole-5-carboxamido)picolinamide], for which the IC50 is not above 100 nM.

For the compound `Cc1nn(C[C@H]2CCC(F)(F)C2)c(C(=O)Nc2ccnc(C(N)=O)n2)c1C(F)(F)F` [SC-248S], the 50% inhibitory concentration (IC50) is 1000 to 10000 nM.

As to `NC(=O)c1cc(NC(=O)c2c(C(F)(F)F)c(C3CC3)nn2CC2CCC(F)(F)C2)ccn1` (single isomer, unassigned) [SC-129a], the IC50 is not above 100 nM.

In the case of `Cc1c(C(C)(F)F)nn(C[C@@]2(C)CCC(F)(F)C2)c1C(=O)Nc1ccnc(S(N)(=O)=O)c1` (single isomer, unassigned) [SC-212b], the IC50 was not above 100 nM.

As for `CS(=O)(=O)c1cc(NC(=O)c2c(C(F)(F)F)c(C3CC3)nn2CC2CCC(F)(F)C2)ccn1` (single isomer, unassigned) [SC-277b], the IC50 is not above 100 nM.

Regarding `CS(=O)(=O)c1cc(NC(=O)c2c(C(F)(F)F)c(C3CC3)nn2CC2CCCCO2)ccn1` (single isomer, unassigned) [SC-259b], the half-maximal inhibitory concentration (IC50) is not above 100 nM.

Consider `CS(=O)(=O)c1cccc(NC(=O)c2cc(C(F)(F)F)nn2CC2CCC(F)(F)CC2)c1` [SC-02, 2-[(4,4-difluorocyclohexyl)methyl]-N-(3-methylsulfonylphenyl)-5-(trifluoromethyl)pyrazole-3-carboxamide], for which the 50% inhibitory concentration (IC50) fell in the range of 100 to 1000 nM.

Consider `CS(=O)(=O)c1cc(NC(=O)c2c(C(F)(F)F)c(C3CC3)nn2CC2CCCCO2)ccn1` (single isomer, unassigned) [SC-259a], for which the IC50 is not above 100 nM.

Consider `Cc1c(C(C)(F)F)nn(CC2C[C@H]2C(F)(F)F)c1C(=O)Nc1ccnc(C(N)=O)c1` (single isomer, unassigned) [SC-204a], for which the IC50 is not above 100 nM.

Consider `Cc1c(C(C)(F)F)nn([C@@H](C)C2CC(F)(F)C2)c1C(=O)Nc1ccnc(S(C)(=O)=O)c1` [SC-222a], for which the IC50 was 100 to 1000 nM.

On to `Cc1nn(CC2CCC(F)(F)CC2)c(C(=O)Nc2cnnc(S(C)(=O)=O)c2)c1C(F)(F)F` [SC-280, 1-((4,4-difluorocyclohexyl)methyl)-3-methyl-N-(6-(methylsulfonyl)pyridazin-4-yl)-4-(trifluoromethyl)-1H-pyrazole-5-carboxamide], for which the IC50 lay within 100 to 1000 nM.

Turning to `NC(=O)c1cc(NC(=O)c2c(C(F)(F)F)c(C3CC3)nn2CC2CC(C(F)F)C2)ccn1` (single isomer, unassigned) [SC-221a, 4-(3-cyclopropyl-1-((3-(difluoromethyl)cyclobutyl)methyl)-4-(trifluoromethyl)-1H-pyrazole-5-carboxamido)picolinamide], the IC50 was not above 100 nM.

In the case of `NC(=O)c1cc(NC(=O)c2c(C(F)(F)F)c(C3CC3)nn2CC2CCCOC2)ccn1` (single isomer, unassigned) [SC-145b, 4-(3-Cyclopropyl-1-((tetrahydro-2H-pyran-3-yl)methyl)-4-(trifluoromethyl)-1H-pyrazole-5-carboxamido)picolinamide], the concentration for half-maximal inhibition (IC50) was not above 100 nM.

Regarding `NC(=O)c1cc(NC(=O)c2c(C(F)(F)F)c(C3CC3)nn2CC2CC2(F)F)ccn1` (single isomer, unassigned) [SC-279b], the IC50 was 100 to 1000 nM.

Regarding `Cc1nn(CC2CCO2)c(C(=O)Nc2cccc(S(C)(=O)=O)c2)c1C(F)(F)F` (centres unmarked) [SC-237, 3-methyl-N-(3-(methyIsulfonyl)phenyl)-1-(oxetan-2-yimethyl)-4-(trifluoromethyl)-1H-pyrazole-5-carboxamide], the IC50 lay in the range of 1000 to 10000 nM.

Turning to `Cc1nn(CC2CCC(F)(F)CC2)c(C(=O)Nc2cccc(C(N)=O)n2)c1C(F)(F)F` [SC-253, 6-(1-((4,4-difluorocyclohexyl)methyl)-3-methyl-4-(trifluoromethyl)-1H-pyrazole-5-carboxamido)picolinamide], the 50% inhibitory concentration (IC50) lay in the range of 1000 to 10000 nM.

As to `Cc1c(C(C)(F)F)nn(CC2(C)CCC(F)(F)C2)c1C(=O)Nc1ccnc(S(N)(=O)=O)c1` (single isomer, unassigned) [SC-212a], the half-inhibitory concentration (IC50) is not above 100 nM.

As to `Cc1c(C(C)(F)F)nn(CC2CCC(F)(F)C2)c1C(=O)Nc1cccc(S(N)(=O)=O)c1` (single isomer, unassigned) [SC-296a], the IC50 was not above 100 nM.

Regarding `NS(=O)(=O)c1cccc(NC(=O)c2c(C(F)(F)F)c(C(F)F)nn2CC2CCC(F)(F)C2)c1` (centres unmarked) [SC-262, 1-((3,3-difluorocyclopentyl)methyl)-3-(difluoromethyl)-N-(3-sulfamoylphenyl)-4-(trifluoromethyl)-1H-pyrazole-5-carboxamide], the IC50 is not above 100 nM.

On to `Cc1nn(CC2CCC(F)(F)CC2)c(C(=O)Nc2cccc(S(N)(=O)=O)c2)c1Cl` [SC-236, 4-chloro-1-((4,4-difluorocyclohexyl)methyl)-3-methyl-N-(3-sulfamoylphenyl)-1H-pyrazole-5-carboxamide], for which the IC50 is not above 100 nM.

With `Cc1nn(CC2CCC(F)(F)CC2)c(C(=O)Nc2cccc(S(C)(=O)=O)c2)c1C` [SC-44, 2-[(4,4-difluorocyclohexyl)methyl]-4,5-dimethyl-N-(3-methylsulfonylphenyl)pyrazole-3-carboxamide], the IC50 was 100 to 1000 nM.

Regarding `Cc1c(OC(F)F)nn(CC2CC(F)(F)C2)c1C(=O)Nc1ccnc(S(C)(=O)=O)c1` [SC-323, 1-((3,3-difluorocyclobutyl)methyl)-3-(difluoromethoxy)-4-methyl-N-(2-(methylsulfonyl)pyridin-4-yl)-1H-pyrazole-5-carboxamide], the IC50 was in the range of 100 to 1000 nM.

As to `NC(=O)c1cc(NC(=O)c2c(C(F)(F)F)c(OC3CC(F)(F)C3)nn2CC2CCC(F)(F)C2)ccn1` (centres unmarked) [SC-283, 4-(3-(3,3-difluorocyclobutoxy)-1-((3,3-difluorocyclopentyl)methyl)-4-(trifluoromethyl)-1H-pyrazole-5-carboxamido)picolinamide], the half-inhibitory concentration (IC50) was not above 100 nM.

In the case of `NC(=O)c1cc(NC(=O)c2c(C(F)(F)F)c(C3CC3)nn2C[C@@H]2CC[C@H](C(F)(F)F)O2)ccn1` (single isomer, unassigned) [SC-284a], the half-inhibitory concentration (IC50) was not above 100 nM.

For the compound `CS(=O)(=O)n1cc(NC(=O)c2c(C(F)(F)F)cnn2CC2CCCCC2)c2cccnc21` [SC-53, 1-(cyclohexylmethyl)-N-(1-(methylsulfonyl)-1H-pyrrolo[2,3-b]pyridin-3-yl)-4-(trifluoromethyl)-1H-pyrazole-5-carboxamide], the IC50 is not above 100 nM.

Turning to `Cc1c(C(F)(F)F)nn(CC2CCC(F)(F)C2)c1C(=O)Nc1ccnc(S(N)(=O)=O)c1` (single isomer, unassigned) [SC-254b], the half-maximal inhibitory concentration (IC50) was not above 100 nM.

Regarding `Cc1c(C(C)(F)F)nn(CC2(C)CC(F)(F)C2)c1C(=O)Nc1ccnc(C(N)=O)c1` [SC-208, 4-(1-((3,3-difluoro-1-methylcyclobutyl)methyl)-3-(1,1-difluoroethyl)-4-methyl-1H-pyrazole-5-carboxamido)picolinamide], the half-inhibitory concentration (IC50) is not above 100 nM.

Consider `CS(=O)(=O)c1cc(NC(=O)c2c(C(F)(F)F)c(C3CC3)nn2C[C@@H]2CCO[C@H]2C(F)(F)F)ccn1` (racemic) [SC-150c], for which the concentration for half-maximal inhibition (IC50) is not above 100 nM.

Values taken from patent publication US11999699B2, “Substituted pyrazole amides” (GRUENENTHAL GMBH, priority 2021, dated 2024).
